Experimental data from US20180016593A1, “HERBICIDE-RESISTANT SUNFLOWER PLANTS, POLYNUCLEOTIDES ENCODING HERBICIDE-RESISTANT ACETOHYDROXYACID SYNTHASE LARGE SUBUNIT PROTEINS, AND METHODS OF USE” (priority 2005, published 2018).

Key:
[1] = tested on: Clearfield sunflower variety A; experiment: Greenhouse spray injury rating (Example 5); type: in vivo; conditions: variety A, 14 DAT
Source text: (§1) Methods: Sunflower lines S4897, Clearfield® sunflower varieties A, B, C and a conventional non-Clearfield variety were sprayed with three rates of imazamox (Raptor™), 100, 200 and 300 gm ai/ha plus 0.5% Sun It II and two rates of imazapyr (Arsenal™) 160 and 360 gm ai/ha plus 0.5% Sun It II when the plants were at the two to three leaf stage. Ratings were taken at 14 days after application (DAT) for injury. Injury was rated on a scale from 0 to 9 where […] to 9=dead plant. Twelve plants were sprayed per herbicide/rate treatment. Statistical analysis was conducted with STATGRAPHICS Plus 5.0 by using ANOVA and LSD procedures.
(§2) Results: After plants were sprayed, it was realized that a height difference between S4897 and other sunflower varieties would have impacted the actual herbicide dose that was delivered. The spray boom height had been calibrated against S4897 and since the other varieties were taller and closer to the boom they would have received a greater dose of herbicide. Rates were recalibrated for the other varieties to determine the approximate dose they would have received. Assessments were made as presented in Table 2 since it was not possible to make a direct rate comparison due to the effect of the height. For example injury scores were compare for S4897 treated imazamox rate 100 gm ai/ha to the other varieties treated at 75 gm ai/ha. The treatment dose of 300 gm ai/ha for line S4897 was equivalent to the treatment of 200 gm ai/ha for the other varieties, which approximately was 300 gm ai/ha.

[2] = tested on: Clearfield sunflower variety B; experiment: Greenhouse spray injury rating (Example 5); type: in vivo; conditions: variety B, 14 DAT
Source text: as §1, §2

[3] = tested on: Clearfield sunflower variety C; experiment: Greenhouse spray injury rating (Example 5); type: in vivo; conditions: variety C, 14 DAT
Source text: as §1, §2

Sunflower line S4897 = experiment: Greenhouse spray injury rating (Example 5); type: in vivo; conditions: 14 DAT
Source text: as §1, §2

[4] = tested on: conventional non-Clearfield variety; experiment: Greenhouse spray injury rating (Example 5); type: in vivo; conditions: non-Clearfield, 14 DAT
Source text: as §1, §2

[5] = tested on: AHAS of S4897 sunflower plants (Ala107-to-Thr); experiment: AHAS activity inhibition (Example 5); type: biochemical, Helianthus annuus; conditions: higher concentration of imazamox; compared to a Clearfield sunflower and conventional non Clearfield variety (FIG. 7)
Method: AHAS activity analysis was also conducted by selecting actively growing young leaves from plants that were not sprayed with herbicide at approximately four weeks after planting.

S4897 sunflower plants = experiment: Greenhouse spray treatment with imazamox (FIG. 3, FIG. 4); type: in vivo, Helianthus annuus; conditions: imazamox 100 or 200 g ai/ha, evaluated 17 days after application
Method: (§3) The S4897 and IMISUN-1 sunflower plants were spray-treated with imazamox at rate of 200 g ai/ha. […] The photograph was taken a few days after the plants were spray treated.
(§4) FIG. 4 is graphical illustration of herbicide injury in a greenhouse test following the spray treatment of IMISUN-1, wild-type, and S4897 sunflower plants with imazamox at either 100 (light columns) or 200 g ai/ ha (dark columns). […] Herbicide injury was evaluated 17 days after the imazamox application.

[6] = tested on: wild-type sunflower plants; experiment: as above; type: in vivo, Helianthus annuus; conditions: imazamox at either 100 or 200 g ai/ha
Method: as §3, §4

S4897 plants = tested on: S4897 plants; parameters: species or system Helianthus annuus; conditions: in vivo
Method: In field trials in Argentina, S4897 plants were tested for resistance to imazapic. […] This trial had single row plots and was treated on a windy day, so the actual herbicide dose reaching the plants was likely less than was applied.

Which “Injury (scale 0 to 9)” value ([1]; imazamox 75 gm ai/ha (100/75)) does the source give for `COCc1cnc(C2=NC(C)(C(C)C)C(=O)N2)c(C(=O)O)c1` (stereo not shown) [imazamox] here?
Its value is 4.3 c.

What about the “Injury (scale 0 to 9)” value ([1]; imazamox 150 gm ai/ha (column 200/150)) of the same compound?
The value was “significantly in juried and had stopped growing”.

What about the “Injury (scale 0 to 9)” value ([1]; imazamox 150 gm ai/ha (column 200/150), listed as Imazamox) of the same compound?
The value was 4.6 c.

What about the “Injury (scale 0 to 9)” value ([1]; imazamox 300 gm ai/ha) of the same compound?
The value was 6.5 days.

And the “Injury (scale 0 to 9)” value ([2]; imazamox 75 gm ai/ha (100/75))?
The value was 1.9 b.

And the “Injury (scale 0 to 9)” value ([2]; imazamox 150 gm ai/ha)?
The value was 4.8 c.

What about the “Injury (scale 0 to 9)” value ([2]; imazamox 300 gm ai/ha) of the same compound?
The value was 5.3 c.

And the “Injury (scale 0 to 9)” value ([3]; imazamox 75 gm ai/ha (100/75))?
Its value is 1.8 b.

And the “Injury (scale 0 to 9)” value ([3]; imazamox 150 gm ai/ha)?
Its value is 2.9 b.

And the “Injury (scale 0 to 9)” value ([3]; imazamox 300 gm ai/ha)?
The value was 4.6 b.

What about the “Injury (scale 0 to 9)” value (Sunflower line S4897; imazamox 100 gm ai/ha + 0.5% Sun It II, 0 no injury, 9 dead plant) of the same compound?
The value was 0.5 a.

What about the “Injury (scale 0 to 9)” value (Sunflower line S4897; imazamox 200 gm ai/ha) of the same compound?
Its value is “little to no injury”.

What about the “Injury (scale 0 to 9)” value (Sunflower line S4897; imazamox 200 gm ai/ha, listed as Imazamox) of the same compound?
Its value is 0.8 a.

What about the “Injury (scale 0 to 9)” value (Sunflower line S4897; imazamox 300 gm ai/ha) of the same compound?
The value was “very little injury”.

What about the “Injury (scale 0 to 9)” value (Sunflower line S4897; imazamox 300 gm ai/ha, listed as Imazamox) of the same compound?
The value was 0.8 a.

What about the “Injury (scale 0 to 9)” value ([4]; imazamox 75 gm ai/ha (100/75)) of the same compound?
The value was 7.2 days.

What about the “Injury (scale 0 to 9)” value ([4]; imazamox 150 gm ai/ha) of the same compound?
Its value is 8.2 days.

And the “Injury (scale 0 to 9)” value ([4]; imazamox 300 gm ai/ha)?
Its value is 8.7 e.

And the “inhibition of AHAS activity” value [5]?
The value was “less inhibition”.

And the “herbicide injury (resistance or tolerance vs IMISUN-1 and wild-type)” value (S4897 sunflower plants)?
The value was “significantly greater resistance or tolerance”.

What about the “survival after spray treatment” value [6] of the same compound?
Its value is “did not survive”.

`Cc1cnc(C2=NC(=O)C(C)(C(C)C)N2)c(C(=O)O)c1` (stereo not shown) [imazapic] was tested. Which “resistance to imazapic compared with IMISUN-1” value (S4897 plants) did it give?
Its value is “clearly superior”.
